# In paper PMC4757823, “μ Opioid receptor: novel antagonists and structural modeling” (Scientific Reports, 2016):
# Columns and labels:
# human MOR [1] = biological target: T1, human MOR (Homo sapiens, UniProt P35372); assay: Radioligand MOR binding assay ([3H]DAMGO competition, CHO-hMOR membranes); conditions: for inhibition at 10 µM: read-out: inhibition of [3H]DAMGO binding to the MOR
# T1 construct: expressed in transfected cells; host or cells: CHO (Chinese hamster ovary) cells stably expressing human MOR; gift from Dr. Lawrence Toll, SRI International
# T1 sequence (P35372 whole entry): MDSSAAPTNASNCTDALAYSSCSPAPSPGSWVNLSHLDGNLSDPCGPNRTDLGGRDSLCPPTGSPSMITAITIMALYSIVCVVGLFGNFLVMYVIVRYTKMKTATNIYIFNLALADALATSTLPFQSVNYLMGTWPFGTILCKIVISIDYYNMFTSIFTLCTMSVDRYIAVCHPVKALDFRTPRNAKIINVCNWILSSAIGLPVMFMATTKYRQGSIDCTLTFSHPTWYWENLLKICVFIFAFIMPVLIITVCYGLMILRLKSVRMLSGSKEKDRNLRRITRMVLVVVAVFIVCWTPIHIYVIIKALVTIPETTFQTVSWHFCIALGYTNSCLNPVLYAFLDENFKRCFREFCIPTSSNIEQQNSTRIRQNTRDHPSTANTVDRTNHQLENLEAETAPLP
# human MOR [2] = biological target: T1, human MOR; assay: [35S]GTPγS binding assay in CHO-hMOR cell membranes; format: biochemical; conditions: for stimulation of [35S]GTPγS binding: CHO-hMOR membranes, agonist mode
# Description: Determination of [^35S]GTPγS binding to CHO-hMOR cell membranes were performed as described previously. Cell membranes (5–10 μg protein), prepared as described for the radioligand MOR binding assay, were incubated in the absence or in the presence of test compound in the assay buffer (20 mM HEPES, 100 mM NaCl, 10 mM MgCl2, pH 7.4) containing [^35S]GTPγS (0.05 nM) and GDP (10 nM) in a total volume of 1.0 mL for 60 min at 25 °C. Nonspecific binding was determined using 10 μM GTPγS, and the basal binding was determined in the absence of test compound. Samples were filtered over glass fiber filters and counted as described for the radioligand binding assays. […] The antagonist equilibrium dissociation constant Ke for 4 was calculated using the equation Ke = [a]/(DR − 1), where “a” is the concentration of antagonist. All experiments were performed in duplicate and repeated at least three times.
# human MOR [3] = biological target: T1, human MOR; assay: cAMP accumulation assay (GloSensor) in CHO-hMOR-p22F cells; format: cell-based; conditions: for inhibition of the forskolin-stimulated cAMP production: CHO-hMOR-p22F cells, agonist mode
# Description: Inhibition of the forskolin-stimulated intracellular cAMP accumulation in CHO cells co-expressing the hMOR and the cAMP biosensor GloSensor-22F (CHO-hMOR-p22F cells) was performed using the Glo-Sensor^TM cAMP assay (Promega), according to the manufacturer’s instructions. Cells were seeded in growth medium into 384-well plates at a density of 5,000 cells in 30 μL per well and incubated overnight. On the day of assay, culture media was removed, and cells were pre-equilibrated for 90 min with 4% v/v of the GloSensor cAMP reagent in reaction medium (20 mM HEPES, 1 × HBSS, pH 7.4) at 37 °C and 5% CO2. […] Forskolin (10 μM) was added to each well, and luminescence was measured after 20 min. All experiments were performed in triplicate and repeated at least three times.
# [4] = tested on: morphine-induced antinociception in mice; assay: Acetic acid-induced writhing test, antagonism of morphine-induced antinociception; format: in vivo, mouse; conditions: s.c.
# [5] = tested on: morphine-induced antinociception in mice; assay: Tail-flick test, antagonism of morphine-induced antinociception; format: in vivo, mouse
# μ1 receptors = biological target: μ1 receptors; set-up: method as in PMID 8069669; conditions: lowering radioligand binding; cited from earlier work
# μ2 receptors = biological target: μ2 receptors; set-up: method as in PMID 8069669; conditions: lowering radioligand binding; cited from earlier work
# mouse tail-flick test = tested on: mouse tail-flick test; set-up: method as in PMID 8069669; conditions: cited from earlier work
# MOR = conditions: concentration of 100 μM; cited from earlier work
# [6] = tested on: μ3 opioid receptor subtype; set-up: method as in PMID 15580165; conditions: human monocytes; cited from earlier work
Structure (SMILES),Ki (human MOR [1]) [µM],inhibition at 10 µM (human MOR [1]) [%],stimulation of [35S]GTPγS binding (human MOR [2]),inhibition of the forskolin-stimulated cAMP production (human MOR [3]),also measured
COc1ccc(S(=O)(=O)N2CCCN(c3c(Cl)cncc3Cl)CC2)cc1OC [Compound 5],7.01,≥ 50,none of the three ligands produced any increase,not effective,
COc1cc2c(cc1OC)C(C)N(Cc1cc(C)c(O)c(C)c1)CC2 (stereo not drawn) [Compound 4],1.11,≥ 50,none of the three ligands produced any increase,not effective,"Kb (human MOR [2]; read-out: antagonist equilibrium constant (Ke)): 1.02 ± 0.25 µM; rightward shift in the concentration-response for DAMGO (human MOR [3]; DAMGO inhibition of forskolin-stimulated cAMP accumulation): 3 fold; Kb (human MOR [3]; read-out: Ke): 8.03 ± 0.38 µM; effect on pain behavior when administered alone (chemical sensitivity) ([4]; alone, vs. vehicle): did not affect pain behavior; reversal of morphine analgesia in the writhing test ([4]; given 30 min prior to s.c. morphine): significant and dose-dependent reversal; blockade of morphine's analgesic effect against thermal-induced nociception ([5]; 20 mg/kg s.c. pretreatment, 30 min prior to s.c. morphine): complete blockade; effect on pain behavior when administered alone (thermal sensitivity) ([5]; s.c., alone, vs. vehicle): did not affect pain behavior"
COc1ccc(CC2c3cc(OC)c(OC)cc3CCN2C)cc1OC (stereo not drawn) [Laudanosine],,,,,Ki (μ1 receptors): 2.7 µM; Ki (μ2 receptors): 13 µM; antinociceptive effects (mouse tail-flick test): exert antinociceptive effects
Cc1c(NC(=O)c2ccc(Cl)cc2)cc(-c2ccccc2)n1CCCN1CCOCC1 [Compound 3],10.7,≥ 50,none of the three ligands produced any increase,not effective,
COc1ccc(C[C@H]2c3cc(O)c(OC)cc3CCN2C)cc1O [reticuline],,,,,% of morphine effects (MOR): ca. 16%; binding to the μ3 opioid receptor subtype [6]: no binding
